Reference: PMC5011342, “A high throughput drug screening assay to identify compounds that promote oligodendrocyte differentiation using acutely dissociated and purified oligodendrocyte precursor cells” (BMC Research Notes, 2016)
Read-outs that look alike come from different tables or passages of the source.

What was measured:
[1] = tested on: acutely dissociated and purified rat OPCs; assay: Acute OL differentiation assay (MBP expression/cell, immunofluorescent image quantification); type: cell-based; conditions: Rattus norvegicus, sheet "All OLga data"; for activation at 0.4 µM: test compound at 0.4 uM, read-out: 0.4 uM (% Quet); for activation at 0.08 µM: test compound at 0.08 uM, read-out: 0.08 uM (% Quet)
How it was run: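 This acute differentiation assay used purified rat OPCs from postnatal day 6–7 pups, seeded into PDL/laminin-coated 96-well plates in differentiation medium lacking PDGF and FGF. Compounds were applied in quadruplicate after a 1–2 h preincubation at 37 °C, 10 % CO2, with 0.1 % DMSO negative and 40 ng/ml T3 positive controls in eight wells. After fixation on DIV4, anti-MBP immunofluorescence images yielded MBP expression/cell.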

expanded OPCs = assay: cells; conditions: for viability at 0.1 µM / viability at 1 µM / viability at 10 µM: Rattus norvegicus, 72 h; for 0.1 µM (% DMSO) / 1 µM (% DMSO) / 10 µM (% DMSO): alamarBlue viability of expanded OPCs, relative to DMSO control; for 0.1 µM (% DMSO): compound at 0.1 µM; for 1 µM (% DMSO): compound at 1 µM; for 10 µM (% DMSO): compound at 10 µM
How it was run: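 Toxicity screen: compounds added at 0.1, 1 and 10 µM to PDGF-AA-expanded OPCs in 96-well plates, 3-day incubation at 37 °C, 10% CO2, then alamarBlue 1:10 for 4 h with fluorescence readout. Results set screening doses of 10/2, 2/0.4 or 0.4/0.08 µM.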

[2] = NCC library screen, relative to quetiapine
[3] = test compound at 2 uM, NCC library screen, relative to quetiapine, read-out: 2 uM (% Quet)
[4] = read-out: 0.1 µM (% DMSO), alamarBlue viability, NCC library compound at 0.1 µM, sheet "All Tox data"
[5] = read-out: 1 µM (% DMSO), alamarBlue viability, NCC library compound at 1 µM, sheet "All Tox data"
[6] = read-out: 10 µM (% DMSO), alamarBlue viability, NCC library compound at 10 µM, sheet "All Tox data"
[7] = test compound at 2 uM, MBP expression relative to quetiapine, NCC library screen, read-out: 2 uM (% Quet)
[8] = test compound at 10 uM, MBP expression relative to quetiapine, NCC library screen, read-out: 10 uM (% Quet)
[9] = 2 uM test compound, relative to quetiapine, read-out: OL differentiation, 2 uM (% Quet)
[10] = 10 uM test compound, relative to quetiapine, read-out: OL differentiation, 10 uM (% Quet)
[11] = read-out: 0.1 µM (% DMSO), alamarBlue viability of expanded OPCs, compound at 0.1 µM, sheet All Tox data
[12] = read-out: 1 µM (% DMSO), alamarBlue viability of expanded OPCs, compound at 1 µM, sheet All Tox data
[13] = read-out: 10 µM (% DMSO), alamarBlue viability of expanded OPCs, compound at 10 µM, sheet All Tox data
[14] = test compound at 10 uM, NCC library screen, relative to quetiapine, read-out: 10 uM (% Quet)
[15] = MBP expression relative to quetiapine, NCC library screen

## NC(=NCc1ccc(Cl)cc1)SCCCc1cnc[nH]1 [Clobenpropit]
[1]; [2]
  activation at 0.4 µM: 7.2%
[1]; [3]
  activation at 2 µM: -2.7%
Expanded OPCs; [4]
  viability at 0.1 µM: 120%
Expanded OPCs; [5]
  viability at 1 µM: 107%
Expanded OPCs; [6]
  viability at 10 µM: 39.3%

## CC1(C)S[C@@H]2[C@H](NC(=O)[C@H](N)c3ccccc3)C(=O)N2[C@H]1C(=O)O [Ampicillin]
[1]; [7]
  activation at 2 µM: -10.9%
[1]; [8]
  activation at 10 µM: -36.2%
Expanded OPCs
  0.1 µM (% DMSO): 88.7 % DMSO
  1 µM (% DMSO): 94.1 % DMSO
  10 µM (% DMSO): 94.1 % DMSO

## CN1CC(=O)N2[C@H](c3ccc4c(c3)OCO4)c3[nH]c4ccccc4c3C[C@@H]2C1=O [Tadalafil]
[1]; [9]
  activation at 2 µM: 21.4%
[1]; [10]
  activation at 10 µM: -16%
Expanded OPCs; [11]
  viability at 0.1 µM: 99.2%
Expanded OPCs; [12]
  viability at 1 µM: 93%
Expanded OPCs; [13]
  viability at 10 µM: 93.9%

## CN1CCN2c3ncccc3Cc3ccccc3C2C1 (stereo not drawn) [Mirtazapine]
[1]; [2]
  activation at 0.4 µM: -26.7%
[1]; [3]
  activation at 2 µM: -35.7%
Expanded OPCs; [4]
  viability at 0.1 µM: 94.4%
Expanded OPCs; [5]
  viability at 1 µM: 73%
Expanded OPCs; [6]
  viability at 10 µM: 60.1%

## CN(C)CCC=C1c2ccccc2CCc2ccccc21 [Amitriptyline]
[1]; [2]
  activation at 0.4 µM: -6%
[1]; [3]
  activation at 2 µM: -23.5%
Expanded OPCs
  0.1 µM (% DMSO): 82.0 % DMSO
  1 µM (% DMSO): 60.1 % DMSO
  10 µM (% DMSO): 18.3 % DMSO

## COc1ccc(C2CNC(=O)C2)cc1OC1CCCC1 (stereo not drawn) [Rolipram]
[1]; [9]
  activation at 2 µM: 11.2%
[1]; [10]
  activation at 10 µM: -14.2%
Expanded OPCs; [11]
  viability at 0.1 µM: 97.1%
Expanded OPCs; [12]
  viability at 1 µM: 92.8%
Expanded OPCs; [13]
  viability at 10 µM: 86.8%

## CCN(CC)CC1CCCCN1CC(=O)N1c2ccccc2C(=O)Nc2cccnc21 (stereo not drawn) [Otenzepad]
[1]; [3]
  activation at 2 µM: 11.2%
[1]; [14]
  activation at 10 µM: 13.5%
Expanded OPCs; [4]
  viability at 0.1 µM: 91.2%
Expanded OPCs; [5]
  viability at 1 µM: 81.4%
Expanded OPCs; [6]
  viability at 10 µM: 75.7%

## Clc1ccc2c(c1)CCc1cccnc1C2=C1CCNCC1 [Desloratadine]
[1]; [2]
  activation at 0.08 µM: -28%
  activation at 0.4 µM: -84.8%
Expanded OPCs; [4]
  viability at 0.1 µM: 61%
Expanded OPCs; [5]
  viability at 1 µM: 29%
Expanded OPCs; [6]
  viability at 10 µM: 10.5%

## c1cnc(N2CCN(Cc3ccc4c(c3)OCO4)CC2)nc1 [Piribedil]
[1]; [9]
  activation at 2 µM: 23.4%
[1]; [10]
  activation at 10 µM: 29.9%
Expanded OPCs; [11]
  viability at 0.1 µM: 88.5%
Expanded OPCs; [12]
  viability at 1 µM: 100%
Expanded OPCs; [13]
  viability at 10 µM: 103%

## CC(C)(S)[C@@H](N)C(=O)O [Penicillamine]
[1]; [3]
  activation at 2 µM: -0.01%
[1]; [14]
  activation at 10 µM: 6%
Expanded OPCs
  0.1 µM (% DMSO): 86.6 % DMSO
  1 µM (% DMSO): 87.9 % DMSO
  10 µM (% DMSO): 92.6 % DMSO

## CCc1cc(C(N)=S)ccn1 [Ethionamide]
[1]; [3]
  activation at 2 µM: -7.9%
[1]; [14]
  activation at 10 µM: 7.6%
Expanded OPCs
  0.1 µM (% DMSO): 89.6 % DMSO
  1 µM (% DMSO): 86.5 % DMSO
  10 µM (% DMSO): 79.6 % DMSO

## Cn1cc[nH]c1=S [Methimazole]
[1]; [7]
  activation at 2 µM: -0.16%
[1]; [8]
  activation at 10 µM: -20.4%
Expanded OPCs
  0.1 µM (% DMSO): 88.3 % DMSO
  1 µM (% DMSO): 90.9 % DMSO
  10 µM (% DMSO): 85.4 % DMSO

## OC(c1cc(C(F)(F)F)nc2c(C(F)(F)F)cccc12)C1CCCCN1 (stereo not drawn) [Mefloquine]
[1]; [15]
  activation at 0.08 µM: -20.5%
  activation at 0.4 µM: -134%
Expanded OPCs
  0.1 µM (% DMSO): 39.0 % DMSO
  1 µM (% DMSO): 11.0 % DMSO
  10 µM (% DMSO): 7.4 % DMSO

## CCOC(=O)c1cncn1[C@H](C)c1ccccc1 [Etomidate]
[1]; [7]
  activation at 2 µM: 10.1%
[1]; [3]
  activation at 2 µM: -2.5%
[1]; [8]
  activation at 10 µM: -7.1%
[1]; [14]
  activation at 10 µM: -8.3%
Expanded OPCs; [4]
  viability at 0.1 µM: 101%
Expanded OPCs; [5]
  viability at 1 µM: 87.4%
Expanded OPCs; [6]
  viability at 10 µM: 83%
Expanded OPCs
  0.1 µM (% DMSO): 89.9 % DMSO
  1 µM (% DMSO): 87.4 % DMSO
  10 µM (% DMSO): 88.3 % DMSO
